Assay results published in US20070190582A1, “Platelet surface PF4 antigenic complexes as a diagnostic indicator in heparin-induced thrombocytopenia” (priority 2005, published 2007).

T1: hPF4 bound to surface GAGs of murine platelets (Homo sapiens, UniProt P02776)
T1 construct: made in house; host or cells: E. coli BL21DE30 pLysS, pT7-7 plasmid
T1 sequence (P02776 32-101): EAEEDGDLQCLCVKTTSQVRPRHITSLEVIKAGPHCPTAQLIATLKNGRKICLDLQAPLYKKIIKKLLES

B1: heparinase 1: heparinase I (Sigma), enzyme used to pretreat platelets (protein, UniProt Q05819 22-384, looked up)
Heparin lyase I: QQKKSGNIPYRVNVQADSAKQKAIIDNKWVAVGINKPYALQYDDKLRFNGKPSYRFELKAEDNSLEGYAAGETKGRTELSYSYATTNDFKKFPPSVYQNAQKLKTVYHYGKGICEQGSSRSYTFSVYIPSSFPDNATTIFAQWHGAPSRTLVATPEGEIKTLSIEEFLALYDRMIFKKNIAHDKVEKKDKDGKITYVAGKPNGWKVEQGGYPTLAFGFSKGYFYIKANSDRQWLTDKADRNNANPENSEVMKPYSSEYKTSTIAYKMPFAQFPKDCWITFDVAIDWTKYGKEANTILKPGKLDVMMTYTKNKKPQKAHIVNQQEILIGRNDDDGYYFKFGIYRVGNSTVPVTYNLSGYSETAR

Experiments:
[1] = system: hPF4/FcγRIIA double transgenic mice given KKO; assay: Therapeutic intervention in the murine HIT model (platelet counts after KKO); type: in vivo, mouse
Procedure: Transgenic mice expressing different amounts of hPF4 mRNA per platelet have been described previously (26). Three lines bearing 1, 6 and 22 copy numbers of the human PF4 gene/haplotype were used. […] Transgenic mice expressing FcγRIIA were generously provided by Steven McKenzie, Thomas Jefferson University (30) and crossbred with these hPF4 mice. All murine lines were backcrossed onto the C57BL/6J background>8 times. Genomic makeup of mice was determined by PCR analysis using oligonucleotide primers described previously (26,30). Controls included littermates transgenic for hPF4 or FcγRIIA only. Mice were 6-10 weeks of age at the time of study. Total platelet hPF4 levels in the various transgenic hPF4 lines were determined using an Asserachrom PF4 kit (Diagnostica Stago) as per the manufacturer using recombinant hPF4 as the standard. Mouse blood was obtained by retroorbital puncture. The plate was read at 450 nm in a THERMOmax microplate reader (Molecular Devices). Measurements of surface KKO binding in vivo in WT and the hPF4 transgenic mice were determined after IV injection of 20 μg of FITC-labeled KKO in 200 μL of sterile PBS via the tail vein followed by withdrawal of 50 μL of blood from the retroorbital plexus 10 min later. The blood was coimmunostained for CD41, and KKO binding to CD41-positive cells was estimated by flow cytometry. In other studies, KKO was injected intraperitoneally (IP) in a final volume of 200 μL diluted with sterile PBS. Porcine heparin (200 μL of 100 U/mL stock; Abbott Laboratories) was injected subcutaneously (SQ) in a subgroup of studied animals beginning at 24 hrs for 4 consecutive days. Complete blood counts were measured in 50 μl of whole blood obtained by retroorbital puncture into Safe-T-Fill® minicapillary blood collection tubes (Kabe Labortechnik). Platelets were enumerated using an automatic cell counter (HEMAVET, Drew Scientific). In the therapeutic intervention studies, either porcine heparin (100 U/kg) or protamine sulfate (2 mg/kg) were injected IV over 2 mins. KKO (200 μg) was given IP 1 hr later (zero time point). Injection of heparin or protamine was repeated 21 and 45 hr later. Blood counts were determined as above.
Platelet counts between groups were compared using the Student's t-test. Statistical analyses were performed using Graph Pad Prism (Graphpad Software). Differences were considered significant at a p value of <0.05.

[2] = molecular target: T1, hPF4 bound to surface GAGs of murine platelets; assay: KKO binding to murine platelets in the presence of hPF4 (flow cytometry); parameters: species or system mouse; conditions: mPF4 null platelets, enzyme 0-5 U/ml, 37° C., 30 min
Procedure: Studies were performed using human platelets or platelets from WT and transgenic mice (see below for the description of the mice). Human blood was collected after informed consent from healthy, aspirin-free volunteers in acid citrate dextrose (ACD, pH 4.5, 10:1, vol/vol) under a protocol approved by the Institutional Review Board for Studies involving Human Subjects of the Children's Hospital of Philadelphia. All studies involving mice were approved by the same Institution's Institute Animal Care and Use Committee. Blood was centrifuged at 200 g for 15 min at room temperature (RT) to generate platelet-rich plasma (PRP). PGE1 (final concentration 1 μg/mL, Sigma) was added to the PRP to prevent spontaneous platelet activation. […] Total immunodetectable platelet hPF4 was determined using murine platelets completely deficient in murine PF4 (mPF4 null (29)). […] Autoradiograpic bands over the linear range of exposure were analyzed on a UMAX Vista-58 scanner, and the data analyzed by developing a histogram of the calculated density using the NIH program ImageJ (rsb.info.nih.gov). Total surface PF4 binding was also detected using mPF4 null platelets after paraformaldehyde crosslinking, as above. […] FITC-labeled KKO (50 μg/mL) was added for 15 min, the sample was diluted 1/10 with Tyrode's buffer and antibody binding was measured by flow cytometry as above. […]

[3] = hPF4Mid/FcγRIIA+ mice, heparin 100 U/kg or protamine sulfate 2 mg/kg IV 1 hr before 200 μg KKO IP

Row | Molecule | Effect on KKO-induced thrombocytopenia ([1]; hPF4High/FcγRIIA+ mice, heparin 100 U/kg or protamine sulfate 2 mg/kg IV) | Platelet counts versus mice receiving antibody alone at 24 and 48 hr ([1]; hPF4High/FcγRIIA+ mice, protamine sulfate 2 mg/kg IV) | Effect on KKO-induced thrombocytopenia at 3 hr [1, 3] | Effect on KKO-induced thrombocytopenia at 24 hr [1, 3] | Platelet counts after repeat doses on the second and third days ([1]; hPF4Mid/FcγRIIA+ mice, repeat at 21 and 45 hr) | Effect of pretreating platelets on KKO binding [2]
1 | protamine sulfate | retained its efficacy | significantly higher | prevented thrombocytopenia | decreased the severity of thrombocytopenia | maintained platelet counts above the level in mice that had received KKO alone | –
2 | B1 | – | – | – | – | – | not heparinase 1 alone (data not shown), decreased KKO binding
